Assay results: US9732075B2, “Benzimidazole-proline derivatives” (IDORSIA PHARMACEUTICALS LTD, priority 2012, dated 2017)

How the values were obtained:
human orexin-1 receptor = human orexin-1 receptor (Homo sapiens (Human), UniProt O43613); assay: In vitro assay: intracellular calcium measurements (FLIPR), antagonistic activity; format: cell-based; details: CHO cells expressing human orexin-1 receptor, orexin-A agonist, geometric mean, read-out: IC50 Ox1
Method in brief: (§1)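 Orexin-A-evoked calcium rise (3 nM final, roughly EC70) was recorded with fluo-4 in recombinant CHO cells, human receptor subtype 1 or 2.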

human orexin-2 receptor = human orexin-2 receptor (Homo sapiens (Human), UniProt O43614); assay: as above; format: cell-based; details: CHO cells expressing human orexin-2 receptor, orexin-A agonist, geometric mean, read-out: IC50 Ox2
Method in brief: as §1

Chain of human orexin-2 receptor (O43614 whole entry): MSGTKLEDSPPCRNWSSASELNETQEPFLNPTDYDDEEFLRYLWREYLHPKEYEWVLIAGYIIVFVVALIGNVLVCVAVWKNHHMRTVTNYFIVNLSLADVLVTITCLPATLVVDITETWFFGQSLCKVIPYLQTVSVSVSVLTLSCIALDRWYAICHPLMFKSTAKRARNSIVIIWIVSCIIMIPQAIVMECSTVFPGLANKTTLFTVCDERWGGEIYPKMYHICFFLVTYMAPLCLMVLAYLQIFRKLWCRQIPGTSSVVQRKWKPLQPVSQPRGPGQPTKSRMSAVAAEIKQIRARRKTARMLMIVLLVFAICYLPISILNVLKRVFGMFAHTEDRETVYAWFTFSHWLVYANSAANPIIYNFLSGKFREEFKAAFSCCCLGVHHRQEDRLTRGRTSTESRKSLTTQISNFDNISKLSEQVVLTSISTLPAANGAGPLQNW
Chain of human orexin-1 receptor (O43613 whole entry): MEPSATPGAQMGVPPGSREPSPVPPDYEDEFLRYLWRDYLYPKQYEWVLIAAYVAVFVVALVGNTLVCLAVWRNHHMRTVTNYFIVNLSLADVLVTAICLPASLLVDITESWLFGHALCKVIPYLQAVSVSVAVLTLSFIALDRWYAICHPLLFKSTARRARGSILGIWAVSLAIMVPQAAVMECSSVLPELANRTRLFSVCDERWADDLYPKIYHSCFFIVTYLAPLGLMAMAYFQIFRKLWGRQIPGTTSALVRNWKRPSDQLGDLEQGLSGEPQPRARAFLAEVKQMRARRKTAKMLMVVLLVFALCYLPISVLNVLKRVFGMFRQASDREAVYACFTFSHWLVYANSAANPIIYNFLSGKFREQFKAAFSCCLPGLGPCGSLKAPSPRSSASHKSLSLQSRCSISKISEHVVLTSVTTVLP

Row | Compound | IC50 (human orexin-1 receptor) | IC50 (human orexin-2 receptor)
1 | Cc1cc(Cl)cc2[nH]c([C@@H]3[C@@H](C)CCN3C(=O)c3ccccc3-n3nccn3)nc12 [Ex. 4.101] | 0.018 µM | 0.183 µM
2 | C=C1C[C@@H](c2nc3cc(Cl)c(C(F)(F)F)cc3[nH]2)N(C(=O)c2c(-n3nccn3)ccc(C)c2F)C1 [Ex. 6.180] | 0.005 µM | 0.004 µM
3 | Cc1nc(C(=O)N2CCCC2c2nc3cc(F)c(Br)cc3[nH]2)c(-c2cccc(Cl)c2)s1 (stereo not shown) [Ex. 1.112] | 0.069 µM | 0.289 µM
4 | C=C1CC(c2nc3cc(Cl)c(C)cc3[nH]2)N(C(=O)c2cc(C)sc2-c2ccc(C)c(C)c2)C1 (racemic) [Ex. 6.80] | 0.013 µM | 0.019 µM
5 | COc1cc2nc([C@@H]3[C@@H](C)CCN3C(=O)c3cc(F)ccc3-n3nccn3)[nH]c2cc1OC [Ex. 4.41] | 0.182 µM | 0.248 µM
6 | Cc1ccc(-n2nccn2)c(C(=O)N2CCC[C@@]2(C)c2nc3cc(C(F)(F)F)c(F)cc3[nH]2)c1 [Ex. 5.22] | 0.007 µM | 0.086 µM
7 | Cc1cc2[nH]c([C@@H]3[C@@H](C)CCN3C(=O)c3c(-n4nccn4)ccc(C)c3F)nc2cc1Cl [Ex. 4.75] | 0.008 µM | 0.636 µM
8 | Cc1nc(C(=O)N2CCCC2c2nc3cc(C)c(C)cc3[nH]2)c(-c2cccc(Cl)c2)s1 (stereo not shown) [Ex. 1.95] | 0.018 µM | 0.015 µM
9 | Cc1nc(C(=O)N2CCC[C@H]2c2nc3c(C)c(Cl)ccc3[nH]2)c(-c2ccccc2)s1 [Ex. 1.145] | 0.003 µM | 0.007 µM
10 | C=C1CN(C(=O)c2cc(C)c(C)cc2-n2nccn2)C(C)(c2nc3cc(OC)ccc3[nH]2)C1 (stereo not shown) [Ex. 6.159] | 0.011 µM | 0.01 µM
11 | C=C1C[C@@H](c2nc3cccc(C)c3[nH]2)N(C(=O)c2nc(C)sc2-c2cc(C)cc(C)c2)C1 [Ex. 6.107] | 0.074 µM | 0.016 µM
12 | Cc1nc(C(=O)N2CC[C@H](C)[C@H]2c2nc3cc(C(F)(F)F)ccc3[nH]2)c(-c2ccc(Br)cc2)s1 [Ex. 4.142] | 0.006 µM | 2.16 µM
13 | Cc1cccc(-c2sc(C)nc2C(=O)N2CC[C@H](C)[C@H]2c2nc3c(Cl)cccc3[nH]2)c1 [Ex. 4.122] | 0.003 µM | 0.61 µM
14 | COc1cccc(-c2nc(C(=O)N3CCC[C@@]3(C)c3nc4cc(Cl)c(C(F)(F)F)cc4[nH]3)c(-c3ccc(F)cc3)s2)c1 [Ex. 5.292] | 0.034 µM | 0.671 µM
15 | Cc1ccc(-n2nccn2)c(C(=O)N2CCC[C@@]2(C)c2nc3cc(C(F)(F)F)ccc3[nH]2)n1 [Ex. 5.178] | 0.02 µM | 0.28 µM
16 | C[C@@]1(c2nc3cc(C(F)(F)F)ccc3[nH]2)CCCN1C(=O)c1c(F)cccc1-n1nccn1 [Ex. 5.164] | 0.104 µM | 0.419 µM
17 | Cc1ccc(C(=O)N2CC[C@H](C)[C@H]2c2nc3cc(Cl)c(C)cc3[nH]2)c(-c2cccnc2)c1 [Ex. 4.110] | 0.013 µM | 1.52 µM
18 | C=C1C[C@@H](c2nc3ccc(Cl)c(C)c3[nH]2)N(C(=O)c2nc(C)sc2-c2ccc(F)c(Br)c2)C1 [Ex. 6.125] | 0.002 µM | 0.0008 µM
19 | C=C1C[C@@H](c2nc3cc(C)c(C)cc3[nH]2)N(C(=O)c2cc(Cl)ccc2-n2nccn2)C1 [Ex. 6.193] | 0.041 µM | 0.004 µM
20 | CSc1cccc2nc([C@@H]3CCCN3C(=O)c3cncnc3-c3cccc(C)c3)[nH]c12 [Ex. 1.88] | 0.102 µM | 0.109 µM

Row | Compound | IC50 (human orexin-1 receptor) | IC50 (human orexin-2 receptor)
21 | C=C1C[C@@H](c2nc3ccc(OC)cc3[nH]2)N(C(=O)c2cc(Cl)ccc2-n2nccn2)C1 [Ex. 6.136] | 0.765 µM | 0.004 µM
22 | COc1ccc(-c2ccc3c(c2)OCO3)c(C(=O)N2CCC[C@@]2(C)c2nc3c(C)c(Cl)ccc3[nH]2)c1F [Ex. 5.304] | 0.019 µM | 0.086 µM
23 | C=C1C[C@@H](c2nc3cc(C)c(C)cc3[nH]2)N(C(=O)c2ccccc2-n2nccn2)C1 [Ex. 6.194] | 0.051 µM | 0.005 µM
24 | COc1cc2nc([C@]3(C)CCCN3C(=O)c3cc(C)ccc3-n3nccn3)[nH]c2cc1OC [Ex. 5.21] | 0.022 µM | 0.018 µM
25 | C=C1C[C@@H](c2nc3ccc(OC)cc3[nH]2)N(C(=O)c2nc(C)sc2-c2ccc(C)c(C)c2)C1 [Ex. 6.46] | 0.03 µM | 0.004 µM
26 | COc1ccc(-c2ccc(C)cc2C(=O)N2CCC[C@@]2(C)c2nc3cc(C)c(C)cc3[nH]2)cc1 [Ex. 5.94] | 0.014 µM | 0.037 µM
27 | Cc1ccc(-c2ccccn2)c(C(=O)N2CCC[C@@]2(C)c2nc3c(C)c(Cl)ccc3[nH]2)c1 [Ex. 5.215] | 0.004 µM | 0.011 µM
28 | COc1cc2nc([C@@H]3[C@@H](C)CCN3C(=O)c3c(-n4nccn4)ccc(OC)c3F)[nH]c2cc1OC [Ex. 4.45] | 0.124 µM | 5.78 µM
29 | CSc1ccc2nc([C@@H]3CCCN3C(=O)c3nc(C)sc3-c3cc(F)cc(F)c3)[nH]c2c1 [Ex. 1.44] | 0.404 µM | 0.12 µM
30 | C=C1CC(c2nc3c(C)cc(C)cc3[nH]2)N(C(=O)c2nc(C3CC3)sc2-c2cccc(C)c2)C1 (stereo not shown) [Ex. 6.91] | 0.002 µM | 0.001 µM
31 | Cc1ccc(-n2nccn2)c(C(=O)N2CCC[C@@]2(C)c2nc3cc(C)c(C)cc3[nH]2)n1 [Ex. 5.62] | 0.035 µM | 0.13 µM
32 | C=C1C[C@@H](c2nc3cc(SC)ccc3[nH]2)N(C(=O)c2nc(C)sc2-c2ccc(C)c(C)c2)C1 [Ex. 6.52] | 0.008 µM | 0.002 µM
33 | Cc1ccc(-n2nccn2)c(C(=O)N2CCC[C@@]2(C)c2nc3c(Br)cc(F)cc3[nH]2)c1 [Ex. 5.25] | 0.027 µM | 0.081 µM
34 | C=C1CC(c2nc3cc(Cl)c(C(F)(F)F)cc3[nH]2)N(C(=O)c2nc(C3CC3)sc2-c2cccc(C)c2)C1 (racemic) [Ex. 6.97] | 0.014 µM | 0.01 µM
35 | Cc1ccc(-c2ccc(F)cc2)c(C(=O)N2CCC[C@@]2(C)c2nc3cc(C(F)(F)F)ccc3[nH]2)c1 [Ex. 5.197] | 0.018 µM | 0.166 µM
36 | Cc1nc(C(=O)N2CCC[C@@]2(C)c2nc3ccc(F)c(F)c3[nH]2)c(-c2ccc(F)cc2)s1 [Ex. 5.208] | 0.053 µM | 0.284 µM
37 | Cc1nc(C(=O)N2CCCC2c2nc3c(Br)cccc3[nH]2)c(-c2cccc(Cl)c2)s1 (stereo not shown) [Ex. 1.106] | 0.017 µM | 0.031 µM
38 | Cc1nc(C(=O)N2CCCC2c2nc3cc(C(F)(F)F)c(Cl)cc3[nH]2)c(-c2cccc(Cl)c2)s1 (stereo not shown) [Ex. 1.113] | 0.005 µM | 0.058 µM
39 | COc1ccc(-n2nccn2)c(C(=O)N2CCC[C@@]2(C)c2nc3c(C)c(Cl)ccc3n2C)c1 [Ex. 7.23] | 0.001 µM | 0.003 µM
40 | Cc1ccc(-c2ccccc2)c(C(=O)N2CC[C@H](C)[C@H]2c2nc3cc(Cl)c(C)cc3[nH]2)c1 [Ex. 4.116] | 0.006 µM | 0.198 µM

Row | Compound | IC50 (human orexin-1 receptor) | IC50 (human orexin-2 receptor)
41 | C=C1CC(c2nc3cc(C)c(C)cc3[nH]2)N(C(=O)c2cc(C)sc2-c2ccc(C)c(C)c2)C1 (racemic) [Ex. 6.75] | 0.008 µM | 0.004 µM
42 | C[C@@]1(c2nc3cc(C(F)(F)F)ccc3[nH]2)CCCN1C(=O)c1ccccc1-n1cccn1 [Ex. 5.176] | 0.389 µM | 1.07 µM
43 | Cc1ccc(-c2ccccc2F)c(C(=O)N2CCC[C@@]2(C)c2nc3cc(C)c(C)cc3n2CCF)c1 [Ex. 7.52] | 0.027 µM | 0.06 µM
44 | COc1ccc2nc([C@@H]3CCCN3C(=O)c3nc(C)sc3-c3ccc(Br)cc3)[nH]c2c1 [Ex. 1.18] | 0.935 µM | 0.153 µM
45 | Cc1ccc(-n2nccn2)c(C(=O)N2CCC[C@@]2(C)c2nc3c(C)c(C)c(Br)cc3[nH]2)c1 [Ex. 5.266] | 0.001 µM | 0.001 µM
46 | C=C1C[C@@H](c2nc3c(C)c(Cl)ccc3[nH]2)N(C(=O)c2cc(C)ccc2-n2nccn2)C1 [Ex. 6.42] | 0.012 µM | 0.002 µM
47 | COCCn1c([C@]2(C)CCCN2C(=O)c2cc(C)ccc2-c2cccc(F)c2)nc2cc(C)c(C)cc21 [Ex. 7.36] | 0.016 µM | 0.115 µM
48 | Cc1ccc(-c2ccc(C(F)(F)F)cc2)c(C(=O)N2CCC[C@@]2(C)c2nc3cc(C(F)(F)F)c(Cl)cc3[nH]2)c1 [Ex. 5.157] | 0.367 µM | 0.538 µM
49 | Cc1ccc(C(=O)N2CCC[C@@]2(C)c2nc3cc(C(F)(F)F)c(Cl)cc3[nH]2)c(-n2nccn2)c1 [Ex. 5.140] | 0.005 µM | 0.028 µM
50 | C=C1C[C@@H](c2nc3c(C)c(C)ccc3[nH]2)N(C(=O)c2cc(C)ccc2-n2nccn2)C1 [Ex. 6.63] | 0.088 µM | 0.003 µM
51 | Cc1ccc(-n2nccn2)c(C(=O)N2CCC[C@@]2(C)c2nc3cc(C(F)(F)F)c(Cl)cc3[nH]2)c1 [Ex. 5.24] | 0.002 µM | 0.009 µM
52 | Cc1c(Cl)ccc2[nH]c([C@@H]3[C@@H](C)CCN3C(=O)c3cc(Cl)ccc3-c3ccccc3)nc12 [Ex. 4.162] | 0.002 µM | 0.299 µM
53 | Cc1ccc(-n2cccn2)c(C(=O)N2CCC[C@@]2(C)c2nc3cc(C(F)(F)F)c(Cl)cc3[nH]2)c1 [Ex. 5.138] | 0.002 µM | 0.01 µM
54 | COc1ccc(-n2nccn2)c(C(=O)N2CCC[C@@]2(C)c2nc3c(C)cccc3[nH]2)c1 [Ex. 5.50] | 0.049 µM | 0.033 µM
55 | Cc1ccc(-c2cccc(OC(F)(F)F)c2)c(C(=O)N2CCC[C@@]2(C)c2nc3cc(C(F)(F)F)c(Cl)cc3[nH]2)c1 [Ex. 5.163] | 0.142 µM | 0.401 µM
56 | C=C1C[C@@H](c2nc3cc(C(C)(C)C)ccc3[nH]2)N(C(=O)c2nc(C)sc2-c2ccc(C)c(C)c2)C1 [Ex. 6.57] | 0.011 µM | 0.011 µM
57 | C=C1C[C@@H](c2nc3cc(C)c(C)cc3[nH]2)N(C(=O)c2cc(F)ccc2-n2nccn2)C1 [Ex. 6.192] | 0.048 µM | 0.007 µM
58 | C=C1C[C@@H](c2nc3ccc(Cl)c(C)c3[nH]2)N(C(=O)c2nc(C)ccc2-n2cccn2)C1 [Ex. 6.135] | 0.083 µM | 0.005 µM
59 | COc1cc(C(=O)N2CCC[C@@]2(C)c2nc3cc(F)c(Br)cc3[nH]2)c(-n2nccn2)cc1OC [Ex. 5.125] | 0.084 µM | 0.126 µM
